pEC50, pIC50: −log10 of the molar value.

The values that follow come from publication PMC10160475, “Biological evaluation and in silico studies of novel compounds as potent TAAR1 agonists that could be used in schizophrenia treatment” (Frontiers in Pharmacology, 2023).

Series [1] in a line: Permeability and transporter substrate evaluation in Caco-2 cells. The format is in vitro ADME. The note with it: human. How it is done:
Cells were seeded into 96-well cell plates and cultured continuously for 24 days for subsequent experiments. Compounds were administered with or without verapamil (2 µM). […] The […] content in each sample was measured by liquid chromatography–tandem mass spectrometry (LC-MS/MS). The apparent permeability coefficient and the efflux ratio were calculated.

For a further series, the target named is T1, human TAAR1 (Homo sapiens, UniProt Q96RJ0).
T1 construct: expressed in transfected cells; host or cells: cAMP Hunter CHO-K1 AGTRL1 Gi cells
T1 sequence (Q96RJ0 1-339): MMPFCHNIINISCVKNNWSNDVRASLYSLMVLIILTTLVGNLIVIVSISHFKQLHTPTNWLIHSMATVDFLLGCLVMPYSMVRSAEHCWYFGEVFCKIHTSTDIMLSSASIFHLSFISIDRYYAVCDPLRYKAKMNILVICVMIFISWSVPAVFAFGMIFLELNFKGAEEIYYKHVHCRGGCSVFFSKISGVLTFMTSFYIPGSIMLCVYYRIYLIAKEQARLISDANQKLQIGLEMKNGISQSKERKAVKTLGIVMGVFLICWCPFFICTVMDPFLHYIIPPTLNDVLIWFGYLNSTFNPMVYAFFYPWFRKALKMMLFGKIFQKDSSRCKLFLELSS
Briefly: cAMP assay, functional agonist activity at human TAAR1. The format is cell-based. How it is done: Cells were seeded in a total volume of 20 µL into white-walled, 384-well microplates, followed by incubation at 37°C for the appropriate time before testing. Different concentrations of compounds were added to cells, and incubation was undertaken at 37°C for 10 min, with p-tyramine used as the MAX control. cAMP modulation was determined using the DiscoverX HitHunter cAMP XS + assay. Percentage activity was calculated using the following equation: Activity %=mean RLUtest sample – mean RLUvehicle control/mean RLUMAX control – mean RLUvehicle control×100%.

For the next series, the target named is T2, human 5-HT2A (Homo sapiens, UniProt P28223).
T2 construct: expressed in transfected cells; host or cells: Flp-In-CHO cell line
Briefly: Calcium (FLIPR) assay, antagonist activity at human 5-HT2A. The class given is cell-based. The method, then: With regard to 5-HT2A, the agonistic or inhibitory activity of 5-HT2A of compounds was determined using the Flp-In™-CHO cell line expressing human 5-HT2A. Cells were cultured with Ham’s F-12K (Kaighn’s) medium supplemented with 10% FBS, penicillin (100 U/ml), streptomycin (100 μg/ml), and hygromycin B (600 μg/ml) at 37°C in an atmosphere of 95% air and 5% CO2. Cells were stimulated with different concentrations of compounds for 2 h at 37°C after seeding in 384-well microplates. For the determination of agonistic activity, serotonin was used as the MAX control. In the determination of inhibitory activity, ketanserin was used as the MAX control.

Series [2] in a line: Tissue distribution (brain and plasma) in rats. The class given is in vivo, Sprague–Dawley rats. How it is done:
Rats (three males and three females) were sacrificed at 0.25, 1, or 6 h after administration of 50B (5 mg/kg, i.g.). Blood and brain tissues were harvested. The concentration of compounds in all tissue and blood samples was determined by LC-MS/MS. Drug concentration data were processed in a non-atrioventricular model using WinNonlin™ 6.3.

The next series has as its target T3, human 5-HT1A (Homo sapiens, UniProt P08908).
T3 construct: expressed in transfected cells; host or cells: Gα15-CHO-Clone cells
T3 sequence (P08908 1-422): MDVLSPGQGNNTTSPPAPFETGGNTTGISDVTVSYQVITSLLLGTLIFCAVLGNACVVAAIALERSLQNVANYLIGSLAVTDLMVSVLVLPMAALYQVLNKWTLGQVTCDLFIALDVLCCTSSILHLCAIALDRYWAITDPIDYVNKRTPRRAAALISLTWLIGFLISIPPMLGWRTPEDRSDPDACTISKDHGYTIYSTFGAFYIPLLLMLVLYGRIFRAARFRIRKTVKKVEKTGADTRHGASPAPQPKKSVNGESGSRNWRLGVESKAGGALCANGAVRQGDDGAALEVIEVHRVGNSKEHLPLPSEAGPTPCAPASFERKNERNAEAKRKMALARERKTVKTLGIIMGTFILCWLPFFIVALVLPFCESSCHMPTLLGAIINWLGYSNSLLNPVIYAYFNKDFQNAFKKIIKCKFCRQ
Nature of the series: Calcium (FLIPR) assay, agonist activity at human 5-HT1A. The format is cell-based. The method, then:
With respect to 5-HT1A, recombinant Gα15-CHO-Clone cells expressing human 5-HT1A were used in this test. Cells were cultured with MEM supplemented with 10% FBS, penicillin (100 U/ml), streptomycin (100 μg/ml), and hygromycin B (600 μg/ml) and were seeded in 384-well microplates. Cells were stimulated with different concentrations of compounds for 2 h at 37°C, and the agonistic effect was determined using the FLIPR Calcium Assay Kit. Serotonin was used as the MAX control. Percentage activity was calculated using the following equation: Activity %=mean RLUtest sample−mean RLUvehicle control/mean RLUMAX control−mean RLUvehicle control×100%.

For a further series, the target named is T4, D2S receptors (Homo sapiens, UniProt P14416).
T4 construct: expressed in transfected cells; host or cells: Flp-In-CHO cells
Briefly: cAMP assay, inhibition at human dopamine D2S receptors. The format is cell-based. The method, then:
With regard to D2L and D2S, recombinant Flp-In™-CHO cells expressing human dopamine D2L receptors or D2S receptors were cultured with Ham’s F-12K (Kaighn’s) medium supplemented with 10% FBS, penicillin (100 U/ml), streptomycin (100 μg/ml), and hygromycin B (600 μg/ml) at 37°C in an atmosphere of 5% CO2. The methods of cell inoculation and compound treatment were the same as those for TAAR1, and haloperidol was used as the MAX control. Percentage inhibition was calculated using the following equation: Inhibition %=mean RLUtest sample−mean RLUvehicle control/mean RLUMAX control−mean RLUvehicle control×100%.

T4 sequence (P14416 1-414 isoform P14416-2): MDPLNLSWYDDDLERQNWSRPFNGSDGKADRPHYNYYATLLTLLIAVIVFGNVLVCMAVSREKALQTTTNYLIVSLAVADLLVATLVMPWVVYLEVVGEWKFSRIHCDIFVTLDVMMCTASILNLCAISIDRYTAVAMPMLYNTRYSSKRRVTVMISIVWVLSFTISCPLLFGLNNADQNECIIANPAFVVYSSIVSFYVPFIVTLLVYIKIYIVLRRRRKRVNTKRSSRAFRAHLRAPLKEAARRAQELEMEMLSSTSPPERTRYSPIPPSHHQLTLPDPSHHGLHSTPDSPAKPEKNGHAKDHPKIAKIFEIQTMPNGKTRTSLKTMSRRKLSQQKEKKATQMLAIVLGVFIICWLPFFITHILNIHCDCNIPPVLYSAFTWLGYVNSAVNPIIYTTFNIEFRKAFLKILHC
T2 sequence (P28223 whole entry): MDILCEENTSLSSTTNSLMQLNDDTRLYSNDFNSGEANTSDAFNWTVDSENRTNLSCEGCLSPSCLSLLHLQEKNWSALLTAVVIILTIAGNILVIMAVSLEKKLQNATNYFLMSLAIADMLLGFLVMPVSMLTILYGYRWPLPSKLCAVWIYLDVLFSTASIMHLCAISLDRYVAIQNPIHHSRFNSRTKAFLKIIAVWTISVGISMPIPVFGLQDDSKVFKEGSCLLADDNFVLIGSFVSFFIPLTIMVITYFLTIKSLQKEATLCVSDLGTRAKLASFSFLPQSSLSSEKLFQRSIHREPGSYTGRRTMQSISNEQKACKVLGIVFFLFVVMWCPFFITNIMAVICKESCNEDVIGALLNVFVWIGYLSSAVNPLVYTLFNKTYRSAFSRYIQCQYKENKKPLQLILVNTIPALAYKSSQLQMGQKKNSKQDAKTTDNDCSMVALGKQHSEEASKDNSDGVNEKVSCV

As for `c1csc([C@@H]2CNCCO2)c1` [Compound 50B], the efflux ratio (in general, the permeability from basolateral to apical divided by that in the opposite direction, in the common usage) at 120 min in series [1] (Caco-2) stood at 0.781. The Papp A→B (commonly how fast a substance crosses the layer from the apical side) at 120 min in series [1] (Caco-2, 120 min incubation) turned out to be 35.2 ×10⁻⁶ cm/s. Further, in series [1] (Caco-2, 120 min incubation), the Papp B→A (commonly how fast a substance crosses the layer from the basolateral side) at 120 min came to 27.5 ×10⁻⁶ cm/s. The figures for the pEC50 at human TAAR1 and at human 5-HT1A were 6.39 and 4.00, respectively. The Emax (commonly the maximal effect, on the per cent scale that the assay sets) is 80.1% on human TAAR1 (read-out: TAAR1 Agonist % Emax); 31.5% at human 5-HT2A (ketanserin as MAX control, up to 100 μM); 50.3% at human 5-HT1A (serotonin as MAX control, up to 100 μM, read-out: 5-HT1A agonism Emax); 24.9% on D2S receptors (haloperidol as MAX control, up to 100 μM, read-out: dopamine D2S antagonist Emax). The pIC50 at human 5-HT2A and on D2S receptors was under 4.00 in each case. In addition, the “Concentration ratio brain to plasma compared with SEP-856” value in series [2] (rats, 5 mg/kg i.g.) is “increased significantly compared with that of SEP-856”. Further, the “Plasma concentration compared with SEP-856” value in series [2] (rats, 5 mg/kg i.g., same time point) is reported as “lower than that of SEP-856”. Moreover, the “Detection in rat brain” value in series [2] (single intragastric administration, 5 mg/kg, 0.25 to 6 h) is recorded as “detected in rat brains from 0.25 to 6 h”.
